# In patent publication US11279678B2 (SHANGHAI ECUST BIOMEDICINE CO., LTD., priority 2017, dated 2022):
# Legend:
# [1] = tested on: Hela cervical cancer cell line; assay: In vitro proliferation inhibition of Hela cervical cancer cell line (MTT method); assay type: cell-based; conditions: Homo sapiens; Hela cervical cancer cell line, 48 hours drug exposure; read-out: IC50
# Experimental: Evaluation of In Vitro Antitumor Activity of Hela Cervical Cancer Tumor Cell Lines with Compounds (MTT Method)
# The cells were cultured in RPMI1640 medium containing 200 mL/L fetal bovine serum so that the cells were kept at logarithmic growth. The cells were inoculated to 96-well plate, with a density of 4˜8×10^4/ml, 37° C., and pre-cultured for 24 hours with added drugs. The drugs were set at 6 concentrations, each has 3 holes. After 48 hours of consequent effect, the nutrient solution was then removed and the cells were left for air-drying. Each hole was then added with cold 500 g/L trichloroacetic acid (TCA) 50 μL (final concentration of 100 g/L). After setting for 60 minutes, it was then rinsed for 4-5 times with ionized water and dried. Each hole then was added with 4 g/L SRB 100 μL left for 30 mins. Then it was rinsed with 10 mL/L acetic acid for 4 times, dried. Then 10 mmol Tris-base 200 μL per hole was added, then shaked and mixed, subsequently, oscillating on the plate oscillator for 5 min. The enzyme-linked immunoassay was used to determine the A value. To calibrate, a blank control was used, with a wavelength of 490 nm. Tumor inhibition rate (%)=(Average A value of the control cell hole−Average A value of the drugged hole A)/Average A value of the control cell hole×100%. The positive control cell holes were CA4, CB1, and CB1N. To calculate the IC50 value, the Logit method was used according to the cell growth inhibition rate of different concentrations of the drug.
# [2] = tested on: human gastric cancer cell MGC-803; assay: In vitro antitumor activity on tumor cell lines (CCK-8 method), MGC-803; assay type: cell-based; conditions: Homo sapiens, MGC-803, 72 hours
# Experimental: (§1) Evaluation of In Vitro Antitumor Activity of Compounds on Multiple Tumor Cell Lines (CCK-8 Method)
# (§2) Take the living cells with more than 90% cells for testing. The cell proliferation inhibition test was performed using the EnoGeneCell™ Counting Kit-8 (CK-8) cell viability test kit. The cell was digested, counted and prepared into a cell suspension with a concentration of 1×10^5/mL. 100 μL cell suspension (1×10^4 cells per hole) was added to each hole in the 96-well plate. The 96-well plate was cultured in a 37° C., 5% CO2 incubator for 24 hours. With every hole added with 100 μL respective drugged cultured medium, control groups were set up, including negative control group, solvent control group, and positive control group. Each group has 5 holes. The 96-well plates were cultured at 37° C., in 5% CO2 incubator for 72 hours. Afterward, 10 μL CCK-8 solution was added to each hole, and the culture plate was incubated in the incubator for 4 hours, and the OD value at 450 nm was determined by enzyme labeling instrument. The inhibition rate and IC50 value of these compounds on tumor cells such as human gastric cancer cell MGC-803, human liver cancer cell HepG2, human lung cancer cell A549 and human breast cancer cell MDA-MB-231 were calculated.
# [3] = tested on: human liver cancer cell HepG2; assay: In vitro antitumor activity on tumor cell lines (CCK-8 method), HepG2; assay type: cell-based; conditions: Homo sapiens, HepG2, 72 hours
# Experimental: as §1, §2
# [4] = tested on: human lung cancer cell A549; assay: In vitro antitumor activity on tumor cell lines (CCK-8 method), A549; assay type: cell-based; conditions: Homo sapiens, A549, 72 hours
# Experimental: as §1, §2
# [5] = tested on: human breast cancer cell MDA-MB-231; assay: In vitro antitumor activity on tumor cell lines (CCK-8 method), MDA-MB-231; assay type: cell-based; conditions: Homo sapiens, MDA-MB-231, 72 hours
# Experimental: as §1, §2
# [6] = tested on: gastric cancer MGC-803 transplanted tumor; assay: Antitumor rate of oral administration in mice with MGC-803 transplanted tumor; assay type: in vivo; conditions: for Tumor inhibition rate (%): d0-d12 every 2 days, 7 times, tumor weight
# Experimental: Antitumor rate of oral administration of the compound towards MGC-803 mice with transplanted tumor
# After 1 week of adaptation, the mice were inoculated with gastric cancer MGC-803 tumor tissue subcutaneously. After the tumor grew for 100-300 mm^3, the animals were randomly grouped. For the drug group, each group of each compound had 6 mice, and 12 mice were in the control group. The intragastric administration was employed and the dosage of Ii, Ij, Ik and Il was 25 and 50 mg/kg. The positive control was CA4, the administration time was d0, d2, d4, d6, d8, d10, d12 days, 7 times in total. The tumor size was measured 3 times per week, together with mice weight. The mice were executed 14 days after inoculation and the tumor mass was taken and measured for its weight. The tumor inhibition rate was calculated as tumor weight inhibition rate, and the formula is tumor weight inhibition rate %=(1-treatment group average tumor weight/control group average tumor weight)×100%.
# in vivo = conditions: both, Kunming, mouse, po
# Experimental: (§3) Acute Toxicity Test of Single Gastric Administration in Mice
# (§4) Kunming mice (weight 17-22 g, equal male and female) were randomly grouped according to body weight, with 10 mice maximum per dose group in the experiment. […] Given by single intraperitoneal injection and a single intragastric injection, observations were done after 0.25 h, 0.5 h, 1 h, 2 h, 4 h, and 24 h respectively. The mortality rate was recorded. Afterward, the groups were observed once everyday, and the mortality rate was recorded for 14 days. On day 15, the living mice were sacrificed for pathological dissection.
# [7] = single intragastric administration, mice
# Experimental: as §3, §4
compound,measurement,setting,value
"COc1ccc(CCc2cc(OC)c(OC)c(OC)c2)cc1OC(=O)CCn1cc(F)c(=O)[nH]c1=O [Compound Il, 5-(3,4,5-trimethoxyphenethyl)-2-methoxyphenyl-3-(5-fluoro-2,4-dioxo-3,4-dihydropyrimidin-1(2H)-yl)propanoate]",IC50,[1],29.6 nM
same,IC50,[2],< 0.3 nM
same,IC50,[3],0.4 nM
same,IC50,[4],< 0.3 nM
same,IC50,[5],0.25 nM
same,Tumor inhibition rate (%),[6]; 25 mg/kg intragastric,65%
same,Tumor inhibition rate (%),[6]; 50 mg/kg intragastric,90%
same,tumor size course,[6]; about 8 days after administration,tendency to shrink
same,LD50 at 14 days,in vivo,> 1000 mg/kg
same,LD50,[7],1228 mg/kg
